Experimental data published in US8288334B2, “Peptides for wound healing” (Gene Signal International SA, priority 2010, dated 2012).

Columns and labels:
trans-dermal wounds = experiment: wound healing of trans-dermal wounds in mice after topical application; assay type: in vivo; settings: for wound healing compared with Vehicle treated wounds: 0.5 mg/ml (5 mg/kg), mice; for % healing of wounds, day 1 post treatment: day 1, 0.5 mg/ml (5 mg/kg), vehicle 16.9%; for % healing of wounds, day 1 post treatment / % healing of wounds, day 2 post treatment / % healing of wounds, day 3 post treatment / % healing of wounds, day 4 post treatment: 5 mm punch wounds; for % healing of wounds, day 2 post treatment: day 2, 0.5 mg/ml (5 mg/kg), vehicle 21.2%; for % healing of wounds, day 3 post treatment: day 3, 0.5 mg/ml (5 mg/kg), vehicle 45.9%; for % healing of wounds, day 4 post treatment: day 4, 0.5 mg/ml (5 mg/kg), vehicle 57.5%
Description: The vehicle (Batch A) was administered by topical application at a standardized volume of 10 ml/kg for all applications. The peptides of the invention were administered by topical application at the concentration of 0.5 mg/ml in the vehicle. The protocols of treatment were as it follows: • Group 1: (Batch A, Vehicle): 1 topical application 10 minutes after wounding • Group 2: (Peptide 7, 0.5 mg/ml): 1 topical application 10 minutes after wounding • Group 3: (Peptide 10, 0.5 mg/ml): 1 topical application 10 minutes after wounding • Group 4: (Peptide 11, 0.5 mg/ml): 1 topical application 10 minutes after wounding • Group 5: (Peptide 7B, 0.5 mg/ml): 1 topical application 10 minutes after wounding. • Group 6: (Peptide 7A, 0.5 mg/ml): 1 topical application 10 minutes after wounding. • Group 7: (Peptide 7C, 0.5 mg/ml): 1 topical application 10 minutes after wounding. Wounding
Healthy female BALBC Swiss mice were anesthetized by IP injection of Ketamine-Xylazine (80 mg/kg-12 mg/kg; Ref. K-113, Sigma, France). Two trans-dermal wounds, each of 5 mm in width and about 1 to 2 mm in depth were realized in the right and the left flanks of each mouse using 5 mm punch.
At D1, and 10 min post-injury of the animals, the mice were randomized into 7 groups of 3 mice each.
All treatments were realized by topical application at the frequency of 1 topical application/day, for 4 days. Animals of group 1 were treated with the vehicle solution (Batch A). Animals of groups 2 to 7 were treated with the indicated peptide at a dose of 5 mg/kg.

[1] = system: human microvascular endothelial cells (HMEC); experiment: in vitro angiogenesis assay (Matrigel, endothelial tube formation); assay type: cell-based; settings: 400 μg/ml final concentration of each peptide, images at 6 h post incubation
Description: Angiogenesis of human microvascular endothelial cells (HMEC) was induced in vitro using a Matrigel assay described by Grant et al (1989, Cell, 1989; 58:933). This method is based on the differentiation of endothelial cells to form capillary structures on a Matrigel Matrix. Matrigel is prepared the Engelbreth-Holm-Swarm (EHS) mouse tumor, which represents a complex mixture of basement membrane proteins including type IV collagen, entactin, proteo-heparan sulfate and other growth factors.
Briefly, 250 μl of Matrigel were transferred to each well of a 24-well culture plate and incubated at 37° C. for 30 min to allow for the matrix solution to solidify. HMEC grown in complete growth medium EGM-2MV were harvested by trypsin, suspended in the same growth medium and 500 μl containing 70 000 cells were added on top of the solidified Matrigel in each well and in the presence or absence of protein. Cells were maintained in a humidified atmosphere air containing 5% CO2 at 37° C. for 18-24 hrs. Endothelial tube formation was observed and photographed under an inverted light microscope.
The results of the in vitro angiogenesis assay were presented in FIG. 1, using HMEC and 400 μg/ml final concentration of each peptide. Images were taken at 6 h post incubation.

VEGFA protein = VEGFA protein by human VEGFA sandwich ELISA in HMEC culture medium; assay type: cell-based; settings: HMEC incubated with increasing concentrations of peptide
Description: Serum-deprived HMEC were incubated with different concentrations of peptide 7 or peptide 10 or vehicle […]. After 3 washes with ice-cold PBS, cells were suspended with the protein extraction buffer (PEB) (20 mM Tris-HCl pH 7.5, 150 mM NaCl, 1 mM EDTA, 1 mM EGTA, 1% Triton, 25 mM sodium pyrophosphate, 1 mM β-glycero-phosphate, 1 mM Na3Vo4, 1 μg/ml leupeptine, 1 μM PMSF). The protein content was measured by Bradford. VEGFA concentration in the culture medium or in the extracts was determined by human VEGFA Sandwich ELISA kit (Cell Signaling technology) according to the manufacturer's instructions.

[2] = system: Akt (phosphoserine 473 pAkt); experiment: activation status of protein kinase B (pAkt) by western-blot in HMEC; assay type: cell-based, human; settings: 400 μg/ml, 10 min and 30 min post incubation, immunoblot
Description: The activation status of pAkt was determined by western-blot using an anti-phosphoserine 473 pAkt antibody, and anti-GAPDH mAb as internal standard.
The status of Akt in the HMEC following incubation with either peptide 7 or peptide 10 was investigated.

MAPK (Erk1 and 2) = experiment: activation status of MAPK (pErk1/2) by western-blot in HMEC; assay type: cell-based, human; settings: immunoblot anti-activated MAPK (pErk1/2)
Description: The activation status of MAPK was determined by western-blot using an anti-activated MAPK (pErk1/2) antibody, and anti-GAPDH mAb as internal standard.
We have also investigated the status of the mitogen activated protein kinase (MAPK), as it is well established that it represents another cascade of intracellular signaling could be implicated in the regulation of VEGF expression.

Sequence | wound healing compared with Vehicle treated wounds (trans-dermal wounds) | in vitro angiogenesis-inducing activity [1] | % healing of wounds, day 1 post treatment (trans-dermal wounds) [%] | % healing of wounds, day 2 post treatment (trans-dermal wounds) [%] | % healing of wounds, day 3 post treatment (trans-dermal wounds) [%] | % healing of wounds, day 4 post treatment (trans-dermal wounds) [%] | VEGF protein within the culture medium, concentration dependence (VEGFA protein) | level of activated Akt relative to HMEC incubated without peptide (Control) [2] | level of activation of Erk1 and 2 (MAPK) versus Control (MAPK (Erk1 and 2))
ELDLQASL [Peptide 7B] | healed faster than the wounds treated with Vehicle | – | – | – | – | – | – | – | –
QSQKVPRQVQS [Peptide 11] | healed faster than the wounds treated with Vehicle | strong in vitro angiogenesis-inducing activity | – | – | – | – | – | – | –
RRTTQECPVRTSLD [Peptide 7C] | healed faster than the wounds treated with Vehicle | – | 39.4 | 55.3 | 58.8 | 68.2 | – | – | –
TQECPVRTSLD [Peptide 7A] | healed faster than the wounds treated with Vehicle | – | 27.4 | 44.7 | 45.1 | 58.8 | – | – | –
TQECPVRTSLDRELDLQASL [Peptide 7] | healed faster than the wounds treated with Vehicle | strong in vitro angiogenesis-inducing activity | – | – | – | – | dose-dependent increase in VEGF protein | much higher level of activated Akt | not significant variations in level of activation of Erk1 and 2
VSKDVCRL [Peptide 10] | healed faster than the wounds treated with Vehicle | strong in vitro angiogenesis-inducing activity | – | – | – | – | – | much higher level of activated Akt | not significant variations in level of activation of Erk1 and 2
